Legend:
K-Ras G12D [1] = target: T1, K-Ras G12D (Homo sapiens, UniProt P01116, G12D); experiment: Covalent modification of recombinant K-Ras(G12D) by whole-protein mass spectrometry; type: binding
T1 construct: human K-Ras (G12D, aa 1-169); 6xHis tag + TEV cleavage site (N, cleaved yes); made in house; host or cells: E. coli BL21(DE3)
Description: (§1) Test compounds were prepared as 100× stock solutions in DMSO. K-Ras proteins were diluted with SEC Buffer (20 mM HEPES 7.5, 150 mM NaCl, 1 mM MgCl2) to 400 nM or 1 μM. In a typical reaction, 0.5 μL 100× compound stock was mixed with 50 μL diluted K-Ras protein, and the resulting mixture was incubated for the desired amount of time. The extent of modification was assessed by electrospray mass spectrometry using a Waters Xevo G2-XS system equipped with an Acquity UPLC BEH C4 1.7 μm column. The mobile phase was a linear gradient of 5-95% acetonitrile/water+0.05% formic acid. For kinetic measurements, a 2× compound solution was first prepared in SEC Buffer, which was then mixed with 400 nM K-Ras(G12D) protein at 1:1 (v/v) ratio. Injection time stamps were used to calculate elapsed time.

K-Ras(G13D) = target: T2, K-Ras(G13D) (Homo sapiens, UniProt P01116, G13D); experiment: Covalent modification of recombinant K-Ras(G13D) by whole-protein mass spectrometry; type: binding; conditions: GDP and GppNHp state
T2 construct: human K-Ras (G13D, aa 1-169); 6xHis tag + TEV cleavage site (N, cleaved yes); made in house; host or cells: E. coli BL21(DE3)
Description: as §1

K-Ras G12E [2] = target: T3, K-Ras G12E (Homo sapiens, UniProt P01116, G12E); experiment: Covalent modification of recombinant K-Ras(G12E) by whole-protein mass spectrometry; type: binding; conditions: GDP and GppNHp state
T3 construct: human K-Ras (G12E, aa 1-169); 6xHis tag + TEV cleavage site (N, cleaved yes); made in house; host or cells: E. coli BL21(DE3)
Description: as §1

BaF3/K-Ras(G12D) cells = experiment: Growth inhibition of BaF3/K-Ras(G12D) cells; type: cell-based, murine; conditions: Mus musculus, read-out: IC50, growth of BaF3/K-Ras(G12D) cells
Description: (§2) Cells were seeded into 96-well white flat bottom plates (1,000 cells/well) (Corning) and incubated overnight. Cells were treated with the indicated compounds in a nine-point threefold dilution series (100 μL final volume) and incubated for 72 h. Cell viability was assessed using a commercial CellTiter-Glo (CTG) luminescence-based assay (Promega). Briefly, the 96-well plates were equilibrated to room temperature before the addition of diluted CTG reagent […] (1:4 CTG reagent:PBS). Plates were placed on an orbital shaker for 30 min before recording luminescence using a Spark 20M (Tecan) plate reader.

[3] = system: Ba/F3 KRAS G12D cells + interleukin-3; experiment: Growth inhibition of Ba/F3 KRAS G12D cells co-treated with IL-3; type: cell-based, murine; conditions: IL-3, 10 ng/mL
Description: as §2

[4] = system: SW1990 (homozygous KRAS^G12D/G12D); experiment: In-cell covalent labeling and signaling by Western blot, SW1990; type: cell-based
Description: (§3) Cells were passed for at least two generations after cryorecovery before they were used for assays. All cell lines were tested mycoplasma negative using MycoAlert™ Mycoplasma Detection Kit (Lonza). When indicated, cells were treated with drugs at 40-60% confluency at a final DMSO concentration of 1%. At the end of treatment period, cells were placed on ice. Unless otherwise indicated, adherent cells were washed once with ice-cold PBS (1 mL), scraped with a spatula, and pelleted by centrifugation (500×g, 5 min). Suspension cells were pelleted by centrifugation (500×g, 5 min), washed with 1 mL ice-cold PBS, and pelleted again. Cells were lysed in RIPA buffer supplemented with protease and phosphatase inhibitors (cOmplete and phosSTOP, Roche) on ice for 10 min. For RBD pulldown experiments, cells were lysed in Co-IP Lysis Buffer in lieu of RIPA buffer. Lysates were clarified by high-speed centrifugation (19,000×g, 10 min). Concentrations of lysates were determined with protein BCA assay (Thermo Fisher) and adjusted to 2 mg/mL with additional RIPA buffer (or Co-IP Lysis Buffer). […]
(§4) Unless otherwise noted, SDS-PAGE was run with Novex 12% Bis-Tris gel (Invitrogen) in MES running buffer (Invitrogen) at 200 V for 60 min following the manufacturer's instructions. […] The membrane was washed three times with TBST (5 min each wash) and imaged on a Li-COR Odyssey fluorescence imager.

[5] = system: AsPC-1 (homozygous KRAS^G12D/G12D); experiment: In-cell covalent labeling by Western blot, AsPC-1; type: cell-based
Description: as §3, §4

[6] = system: AGS cell line (heterozygous KRAS^G12D/WT); experiment: In-cell covalent labeling by Western blot, AGS; type: cell-based
Description: as §3, §4

[7] = system: non-G12D mutation cell lines; experiment: In-cell covalent labeling by Western blot, non-G12D cell lines; type: cell-based
Description: as §3, §4

[8] = system: non-G12D mutation cancer cell lines (H1299, HCT116, A549, A375); experiment: Growth inhibition of non-G12D mutation cancer cell lines; type: cell-based
Description: as §2

[9] = system: KRAS G12D mutation cancer cell lines; experiment: Growth inhibition of KRAS G12D cancer cell lines; type: cell-based
Description: as §2

wild type K-Ras = target: T4, wild type K-Ras (Homo sapiens, UniProt P01116); experiment: Covalent modification of test protein after incubation with compound; type: binding; conditions: 24-h incubation with 100 μM compound at 23° C. at pH 7.5
T4 construct: human K-Ras (wildtype, aa 1-169); 6xHis tag + TEV cleavage site (N, cleaved yes); made in house; host or cells: E. coli BL21(DE3)

K-Ras G12D [10] = target: T1, K-Ras G12D; experiment: as above; type: binding; conditions: 24-h incubation with 100 μM compound at 23° C. at pH 7.5
K-Ras G12E [11] = target: T3, K-Ras G12E; experiment: as above; type: binding; conditions: 24-h incubation with 100 μM compound at 23° C. at pH 7.5
K-Ras(G12D)·GDP = target: T5, K-Ras(G12D)·GDP (Homo sapiens, UniProt P01116, G12D); experiment: Detection of covalent modification of K-Ras(G12D) by tandem mass spectrometry; type: binding; conditions: 1 mM or 10 mM, 23° C., 1 h
T5 construct: human K-Ras (G12D, aa 1-169); 6xHis tag + TEV cleavage site (N, cleaved yes); made in house; host or cells: E. coli BL21(DE3)
Description: K-Ras(G12D) protein (1 μM, 100 μL) in PBS 7.4 was treated with β-propiolactone (1 mM or 10 mM) at 23° C. for 1 h. The reaction buffer was exchanged into Digestion Buffer (20 mM Tris 8.0, 2 mM CaCl2)) using a Zeba 0.5-mL desalting column (7K MWCO, Thermo Scientific). 80 μL of the resulting protein solution was mixed with 2 μL 200 mM DTT. The mixture was heated at 56° C. for 30 min. After cooling to 23° C., 4 μL 200 mM iodoacetamide was added. After 15 min at 23° C., 2.1 μL 200 mM DTT was added. After an additional 5 min, 500 ng trypsin was added to the mixture, and the samples were incubated at 37° C. overnight. 5 μL 10% formic acid was added to stop the digestion (final formic acid concentration: 0.5% v/v). The tryptic peptides were enriched and desalted using OMIX C18 tips (Agilent) following the manufacturer's instructions. Peptides (0.5% of total) were resolved on an Easy-Spray nano-HPLC column (Thermo Fisher ES800A, 150 mm length, […], […]) over a 54-min gradient of 2-37% acetonitrile-water+0.1% formic acid and analyzed by a Q-Exactive hybrid quadrupole-orbitrap mass spectrometer (MS1 resolution 70,000, AGC target: 3e6, range: 350-1500 m/z; MS2 resolution 17,500, AGC target: 5e4, max injection time: 120 ms, Top 10, NCE: 25%, dynamic exclusion: 15 s). […]

| Structure (SMILES) | time to complete labeling of K-Ras(G12D)·GDP (K-Ras G12D [1]) [min] | time to complete labeling of K-Ras(G12D)·GppNHp (K-Ras G12D [1]) [min] | kinact/KI (K-Ras G12D [1]; read-out: kinact/KI against K-Ras(G12D)·GDP) [M⁻¹ s⁻¹] | labeling of K-Ras G13D (K-Ras(G13D)) | labeling of K-Ras G12E (K-Ras G12E [2]) | IC50 (BaF3/K-Ras(G12D) cells) [nM] | sensitivity of cells co-treated with interleukin-3 [3] | in-cell labeling of endogenous K-Ras(G12D) [4] | in-cell labeling of endogenous K-Ras(G12D) [5] | in-cell labeling of endogenous K-Ras [6] | in-cell labeling of K-Ras [7] | toxicity to non-G12D mutation cancer cell lines [8] | growth of KRAS G12D cancer cell lines [9] | % covalent modification of wild type K-Ras (wild type K-Ras) [%] | % covalent modification of K-Ras G12D (K-Ras G12D [10]) [%] | % covalent modification of K-Ras G12E (K-Ras G12E [11]) [%] | alkylation of Asp12 in peptide LVVVGAD*GVGK (K-Ras(G12D)·GDP) |
| --- | --- | --- | --- | --- | --- | --- | --- | --- | --- | --- | --- | --- | --- | --- | --- | --- | --- |
| C#Cc1c(F)ccc2cc(O)cc(-c3ncc4c(N5C[C@H]6CC[C@@H](C5)N6C(=O)[C@@H]5OC(=O)C5(C)C)nc(OC[C@@]56CCCN5C[C@H](F)C6)nc4c3F)c12 [(R)-7] | ≤ 30 | ≤ 300 | 11000 | not that of WT, G12E, G12S, or G13D | not that of WT, G12E, G12S, or G13D | 73 ± 17 | lost sensitivity to (R)-7 up to 10 μM | labeled endogenous K-Ras(G12D) completely | labeled endogenous K-Ras(G12D) completely | only half of the two alleles | none in non-G12D mutation cell lines | minimal toxicity to the latter cell lines up to 10 μM concentration | selectively inhibited growth of cancer cells lines harboring K-Ras(G12D) mutation | 0 | 100 | 0 | – |
| O=C1CCO1 [β-propiolactone] | – | – | – | – | – | – | – | – | – | – | – | – | – | – | – | – | the mutant aspartate was covalently alkylated by a 2-carboxylethyl group |
